Test results from PubChem BioAssay AID1919002 (Molecular Pharmacology Branch, DTP, NCI, 2023).

System: 743489-274-T-PDC complex spheroid growth
Assay: Anticancer human tumor 743489-274-T-PDC patient-derived renal cell carcinoma cell line growth inhibition [AhR]
Settings: for IC50: curve of first compound; for viability, T/C: stronger effect = lower value
From the text: Multicellular complex tumor spheroid response to aryl hydrocarbon receptor antagonists in combination with a variety of drugs and investigational agents in selected tumor cell lines
The current study was undertaken to assess response to aryl hydrocarbon receptor antagonists in combination with standard-of-care drugs and investigational agents in solid tumor complex spheroid models. Complex spheroids include a stromal component modeled by human endothelial cells (HUVEC) and fibroblasts modeled by human mesenchymal stem cells (MSCs). The concentration ranges selected for each drug and investigational agent were based upon clinically achievable concentrations if the clinical Cmax of the agent was known.
Compounds. The drugs and investigational agents: BAY 2416964 (NSC825713), GNF351 (NSC835774), CH-223191 (NSC835775), CPI-455 (NSC825282), aza-TdCyd (NSC777586), decitabine (NSC127716), belinostat (NSC758774), entinostat (NSC756642), pevonedistat (NSC761192), tazemetostat (NSC777109), talazoparib (NSC765396), olaparib (NSC753686), selinexor (NSC780203), nedisertib (M3814, NSC802822), bortezomib (NSC756655), venetoclax (NSC766270), doxorubicin (NSC123127), elimusertib (BAY189344, NSC800525), ceralasertib (AZD6738, NSC777638), TAK-243 (NSC785004), alisertib (NSC759677), etoposide (NSC141540), topotecan (NSC609699), eribulin (NSC707389), gemcitabine (NSC613327), carboplatin (NSC241240), cisplatin (NSC119875), and SN-38 (NSC673596) were obtained from the National Cancer Institute (NCI) Developmental Therapeutics Program Chemical Repository (32). The FDA-approved anticancer drug set is available from the Developmental Therapeutics Program at https://dtp.cancer.gov/organization/dscb/obtaining/available plates.htm. […] The stock solutions were prepared in dimethyl sulfoxide (DMSO, Sigma-Aldrich, St. Louis, MO, cat. D2650), except for the platinum compounds which were prepared in saline (Quality Biological, Gaithersburg, MD, cat. 114-055-101), at 800-fold the tested concentration and stored at -70 degrees C prior to their use. All drugs and investigational agents were tested over a range starting from a high concentration at or near the clinical Cmax and decreasing in half-log increments. If the clinical Cmax for an agent had not been determined, the highest concentration tested was 10 microM (Table 1).
Cell Culture. All cells were maintained in an incubator at 37 degrees C and 5% CO2 with 95% humidity. The PDC lines were cultured according to standard operating procedures established by the NCI PDMR (https://pdmr.cancer.gov). Briefly, all PDCs were thawed and cultured in Matrigel-coated flasks prepared with a working solution of 1X Ham's F-12 nutrient mix, without supplementation (Invitrogen, Waltham, MA, cat. 11765054), 100 U/mL penicillin-streptomycin (Invitrogen, cat. 15140122), and 2.5% Matrigel (Corning Inc., Corning, NY, cat. 354248) for the first three passages. All PDCs were cultured in complete DMEM/F-12 media containing advanced DMEM/F-12 (Invitrogen, cat. 12634028), 4.9% defined fetal bovine serum, heat inactivated (HyClone Laboratories Inc., Logan, UT, cat. SH30070.03HI), 389 ng/mL hydrocortisone (Sigma-Aldrich, cat. H4001), 9.7 ng/mL human EGF recombinant protein (Invitrogen, cat. PHG0313), 23.4 microg/mL adenine (Sigma-Aldrich, cat. A2786), 97.3 U/mL penicillin-streptomycin (Invitrogen, cat. 15140122), 1.9 mM L-glutamine (Invitrogen, cat. 25030081), and 9.7 microM Y-27632 dihydrochloride (Tocris Bioscience, Bristol, United Kingdom, cat. 1254). The PDCs were cultured in complete DMEM/F12 media without 10 microM Y-27632 dihydrochloride for at least two passages prior to the screen. The established cell lines NCI-H1341 and […] were cultured in DMEM/F-12, HEPES (Invitrogen, cat. 11330032), 5% defined fetal bovine serum (HyClone Laboratories Inc., cat. SH30070.03), ITS premix universal culture supplement [insulin (5 microg/mL), transferrin (5 microg/mL), and selenious acid (5 ng/mL)] […]
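Note: spheroids exposed to agents for 7 days before readout.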
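Throughout, for viability, T/C: 100% = DMSO vehicle control wells.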

Nc1ncn(C2CC(O)C(CO)S2)c(=O)n1 (stereo not given) + CC(CO)NC(=O)c1cc(-c2ccc(Cl)cc2)nn(-c2cnn(C)c2)c1=O
IC50 (second compound 0.1 µM): > 300 nM | IC50 (second compound 0.316 µM): > 300 nM | IC50 (second compound 1 µM): > 300 nM | IC50 (second compound 3.16 µM): > 300 nM | IC50 (second compound 10 µM): > 300 nM | viability, T/C (second compound 0.1 µM, first compound 0.000949 µM): 93.7% | viability, T/C (second compound 0.1 µM, first compound 0.003 µM): 111% | viability, T/C (second compound 0.1 µM, first compound 0.00949 µM): 102% | viability, T/C (second compound 0.1 µM, first compound 0.03 µM): 96% | viability, T/C (second compound 0.1 µM, first compound 0.0949 µM): 96% | viability, T/C (second compound 0.1 µM, first compound 0.3 µM): 114% | viability, T/C (second compound 0.316 µM, first compound 0.000949 µM): 103% | viability, T/C (second compound 0.316 µM, first compound 0.003 µM): 92.9% | viability, T/C (second compound 0.316 µM, first compound 0.00949 µM): 93% | viability, T/C (second compound 0.316 µM, first compound 0.03 µM): 88% | viability, T/C (second compound 0.316 µM, first compound 0.0949 µM): 86.9% | viability, T/C (second compound 0.316 µM, first compound 0.3 µM): 95.1% | viability, T/C (second compound 1 µM, first compound 0.000949 µM): 92.4% | viability, T/C (second compound 1 µM, first compound 0.003 µM): 89.3% | viability, T/C (second compound 1 µM, first compound 0.00949 µM): 91.7% | viability, T/C (second compound 1 µM, first compound 0.03 µM): 101% | viability, T/C (second compound 1 µM, first compound 0.0949 µM): 87.7% | viability, T/C (second compound 1 µM, first compound 0.3 µM): 101% | viability, T/C (second compound 3.16 µM, first compound 0.000949 µM): 103% | viability, T/C (second compound 3.16 µM, first compound 0.003 µM): 95.7% | viability, T/C (second compound 3.16 µM, first compound 0.00949 µM): 84.4% | viability, T/C (second compound 3.16 µM, first compound 0.03 µM): 88.3% | viability, T/C (second compound 3.16 µM, first compound 0.0949 µM): 86.8% | viability, T/C (second compound 3.16 µM, first compound 0.3 µM): 92.9% | viability, T/C (second compound 10 µM, first compound 0.000949 µM): 95.5% | viability, T/C (second compound 10 µM, first compound 0.003 µM): 95.1% | viability, T/C (second compound 10 µM, first compound 0.00949 µM): 91.2% | viability, T/C (second compound 10 µM, first compound 0.03 µM): 95.1% | viability, T/C (second compound 10 µM, first compound 0.0949 µM): 93.4% | viability, T/C (second compound 10 µM, first compound 0.3 µM): 86.9%
